Laboratory results: paper PMC9810691, “Structure-guided peptide engineering of a positive allosteric modulator targeting the outer pore of TRPV1 for long-lasting analgesia” (Nature Communications, 2023)
“Also recorded” adds a separate entry of the source. Where a SMILES comes first, the peptide text is derived from it. Bridges are numbered along the chain shown (N, C = ends).

Tests used:
TRPV2 = test: Selectivity: 2-APB-evoked TRPV2 current; format: cell-based, murine; settings: 500 μM 2-APB; normalized to 4 mM 2-APB; mean ± S.E.M., n = 4
Experimental: (§1) HEK293T cells are cultured using DMEM medium contained 10% FBS in a cell incubator with 5% CO2 at 37 °C. Plasmids of murine TRPV1, TRPV2, TRPV3 and human TRPA1 are labeled with YFP or GFP as indicators for subsequent electrophysiological recordings. cDNA constructs of ion channels were transiently transfected with Lipofectamine 2000 (Invitrogen, Carlsbad, CA). And one or 2 days after transient transfection, electrophysiological recordings were performed.
(§2) Patch-clamp recordings were carried out with a HEKA EPC10 amplifier controlled by PatchMaster software (HEKA). Patch pipettes were prepared from borosilicate glass and fire-polished to resistance of 3–8 MΩ by P-97 puller. Both bath solution and pipette solution contained 130 mM NaCl, 10 mM glucose, 0.2 mM EDTA, and 3 mM HEPES and were adjusted to pH 7.2–7.4 with NaOH for whole-cell recordings. For solution with pH lower than 6.5, HEPES was replaced by MES. Whole-cell recordings were performed at ±80 mV. Current was sampled at 10 kHz and filtered at 2.9 kHz. All recordings were performed at room temperature (25 °C). A gravity-driven system (RSC-200, Bio-Logic) with freely rotated perfusion tubes was used for the perfusion of peptide or ligands. Bath and ligand solution were delivered through separate tubes to minimize the mixing of solutions. Patch pipette holding cells was placed in front of the perfusion tube outlet for perfusion.

TRPV3 = test: Selectivity: 2-APB-evoked TRPV3 current; format: cell-based, murine; settings: 30 μM 2-APB; normalized to 1 mM 2-APB; mean ± S.E.M., n = 4
Experimental: as §1, §2

TRPA1 = test: Selectivity: AITC-evoked TRPA1 current; format: cell-based, human; settings: 30 μM AITC; normalized to 1 mM AITC; mean ± S.E.M., n = 4
Experimental: as §1, §2

[1] = cited from earlier work
Source text: Transient receptor potential vanilloid 1 (TRPV1) ion channel is a polymodal nociceptor broadly expressed in sensory neurons involved in pain sensation, making this channel a target for analgesia. Since TRPV1 deletion in rodents led to significant tolerance to noxious heat hyperalgesia[3],[4], antagonists of TRPV1 became the first choice to develop analgesic agents targeting TRPV1 in the past decades. Pharmacological inhibition TRPV1 indeed effectively alleviates dental, rectal, and thermal pain[5],[6]. However, TRPV1 also plays critical roles in thermoregulation, thus its antagonists suf ... || Positive allosteric modulator (PAM) is defined as a ligand without direct activation of its target, but potentiates the activity of agonists of targets. PAMs of TRPV1 have shown significant analgesic effect by inducing calcium overloading in previous reports[11],[12]. For instance, MRS1477 is developed as a small molecule PAM of TRPV1[13]. […] However, as both De1 and De3 bind to the intracell ... || TRPV1 plays a critical role in the pathogenesis of chronic pain[30]–[33], and has been a long-pursued target for pain management. To circumvent the side effects of the first-generation channel inhibitors occurred in clinical trials, alternative strategies such as the PAMs of TRRV1 have been developed.

TRPV1 [2] = settings: cited from earlier work
Source text: Positive allosteric modulator (PAM) is defined as a ligand without direct activation of its target, but potentiates the activity of agonists of targets. PAMs of TRPV1 have shown significant analgesic effect by inducing calcium overloading in previous reports[11],[12]. For instance, MRS1477 is developed as a small molecule PAM of TRPV1[13]. […] For instance, noxious heat, proton, and divalent cations induce conformational changes in the outer pore to activate TRPV1[27]–[29].

TRPV1 E652D [3] = biological target: T1, TRPV1 E652D (Mus musculus, UniProt Q704Y3, E652D); test: Calcium imaging, TRPV1 mutant E652D; format: cell-based, murine; settings: 30 μM s-RhTx with 10 nM capsaicin; n = 45
Experimental: (§3) Site mutations of mTRPV1 were generated by Fast Mutagenesis Kit (Takara Bio). Primers used to generate point mutations are summarized in Supplementary Table 1. All mutations were confirmed by sequencing.
(§4) Calcium imaging assay was performed as previously described[12],[20]. In brief, HEK293T cells expressing TRPV1 were incubated with 2 μM Fluo-4 AM (Thermo Fisher) in 2 mM calcium Ringer’s solution (140 mM NaCl, 5 mM KCl, 2 mM MgCl2, 2 mM CaCl2, 10 mM glucose, and 10 mM HEPES, pH 7.4). Fluorescence images of HEK293T cells were acquired with Nikon Eclipse Ti2 microscope with optiMOS charge-coupled device camera controlled by the Ocular Software (Molecular Devices). Fluo-4 AM was excited at 500/20-nm excitation, and fluorescence emission was detected at 535/30-nm. Fluorescence images were analyzed with Fiji software and Office Excel.

[4] = test system: Trpv1+ nerve fibers, Trpv1-Ai32 / Trpv1-Ai14 mice; test: Trpv1+ intra-epidermal nerve fiber (IENF) quantification; format: in vivo; settings: folded s-RhTx without capsaicin; words
Experimental: (§5) Adult C57 BL/6 mice (male, 8–10 weeks) and Trpv1^-/- mice (Jax Strain #:003770) were used for behavioral studies. To specifically label Trpv1-positive nerve fibers in skin tissues, Trpv1-Cre mice[36] (Jax Strain #:017769) were crossed with floxed reporter lines (Ai32, Jax Strain #:012569 or Ai14, Jax Strain #:007914) to get the transgenic reporter (Trpv1-Ai32 or Trpv1-Ai14) mice. Mice were group-housed at 22–24 °C and relative humidity of 30–70% under the 12 h light-dark cycle with access to standard food and water ad libitum. All the animal procedures were approved by the Institutional Animal Care & Use Committee (IACUC) of Zhejiang University.
(§6) After appropriate survival times, the mice were deeply anesthetized with isoflurane and perfused through the ascending aorta with PBS, followed by 4% PFA. After the perfusion, the hind paw glabrous skins and L4-L6 DRGs were removed and postfixed in the same fixative overnight. Skin sections (30 μm) and DRG sections (10 μm) were cut in a cryostat. Sections were blocked with 2% BSA for 2 h at room temperature and then incubated with Deep-red 640/660-conjugated Nissl (1:1000) at room temperature for 2 h. Sections were then incubated with DAPI (1:10,000, Vector Laboratories, catalog H-1200) for 5 min, followed by three times washing with PBS for 5 min each. The stained and mounted sections were examined with a Nikon fluorescence microscope, and images were captured with a charge-coupled device Spot camera. For quantification analysis, at least three sections from each mouse were selected, and at least three mice were analyzed in each group. To evaluate Trpv1-positive nerve fiber degeneration, transgenic reporter (Trpv1-Ai32 or Trpv1-Ai14) mice were used for the quantification of intra-epidermal nerve fiber (IENF) density. IENF density was calculated by counting the number of IENF crossing the epidermis-dermis boundary within unit length.

TRPV1 [5] = biological target: T2, TRPV1 (Mus musculus, UniProt Q704Y3); test: Whole-cell patch clamp: potentiation of capsaicin-evoked TRPV1 current; format: cell-based, murine
Experimental: as §1
as §2, with “Patch pipette holding cells was placed in front of the perfusion tube outlet for perfusion.” left out
(§7) Data from whole-cell recordings were analyzed in Igor Pro version 5.05 (WaveMatrix). […]

TRPV1 [6] = biological target: T2, TRPV1; test: Whole-cell patch clamp: potentiation of proton-evoked TRPV1 current; format: cell-based, murine; settings: pH 6.5; Hill fit; n = 4 cells; read-out: EC50, enhancement of proton-induced current
Experimental: as §1
as §2, with “Patch pipette holding cells was placed in front of the perfusion tube outlet for perfusion.” left out
as §7

TRPV1 E652D [7] = biological target: T1, TRPV1 E652D; test: Mutant cycle analysis: concentration response, Kd and L on TRPV1 E652D; format: cell-based, murine; settings: mean ± S.E.M.
Experimental: In this analysis, the ligand binding (represented by Kd) and subsequent conformational changes leading to channel opening (represented by L) were separately quantified. Kd and L were calculated by the formulae: EC50 = Kd/(1 + L) and Po max = L/(1 + L), when Po max and EC50 are experimentally measured[20],[21]. Previously we have successfully performed this analysis to establish the interactions between peptide toxin BmP01 and TRPV1[16].
as §3
Patch-clamp recordings were carried out with a HEKA EPC10 amplifier controlled by PatchMaster software (HEKA). Patch pipettes were prepared from borosilicate glass and fire-polished to resistance of 3–8 MΩ by P-97 puller. Both bath solution and pipette solution contained 130 mM NaCl, 10 mM glucose, 0.2 mM EDTA, and 3 mM HEPES and were adjusted to pH 7.2–7.4 with NaOH for whole-cell recordings. […]
as §7
The strength of coupling was determined by the coupling energy (kT multiplied by LnΩ, where k is the Boltzmann constant and T is temperature in Kelvin). LnΩ was calculated by the following equation: LnΩ=LnKd_1⋅Kd_4/Kd_2⋅Kd_3

TRPV1 [8] = biological target: T2, TRPV1; test: Calcium imaging, HEK293T cells expressing TRPV1; format: cell-based, murine; settings: 30 μM s-RhTx with 10 nM capsaicin; n = 12
Experimental: as §1, §4

[9] = local delivery; words
Experimental: 20 μl of CFA was injected first to induce a chronic pain model. […] All data were shown as mean ± S.E.M. Source data are available as a Source Data file.
Complete Freund’s adjuvant (CFA) was injected at a volume of 20 μl to induce chronic inflammatory pain.

[10] = test system: DRG neurons, Trpv1-Ai14 mice; test: Trpv1+ and Nissl+ neurons in DRGs; format: in vivo; settings: for Trpv1+ neurons (% of all neurons): sheet S5e
Experimental: as §5, §6

mouse hind paw skin = format: in vivo, mice; settings: 1 week; folded s-RhTx with capsaicin; n = 3; words
Source text: (§8) Figure R3. […] (A) Statistical […]
(§9) results of hind paw thickness in mice.
(§10) N.S., not significant, two-way ANOVA. n = 9 mice in each group. (B) H&E staining showing the results of cell […]
(§11) N.S., not significant, n = 3 mice in each group. Scale bar, 50 μm. All data were shown as mean ± s.e.m. […]
(§12) different experiment should be performed.
(§13) Response: We thank the reviewer for the insightful comments. We also agree with the reviewer that the local injections of s-RhTx in this study are not likely to change body temperature. To test […]
(§14) 1) in mice and measured body temperature. […]
(§15) n = 6 mice in each group. No significance in two-way ANOVA. All data were shown as mean ± s.e.m. […]

[11] = format: in vivo, mice; settings: i.p. 10 mg kg-1 peptide with capsaicin 1 mg kg-1; n = 6; words
Source text: as §8, §9, §10, §11, §12, §13, §14, §15

mouse hind paw = format: in vivo, mice; settings: 2 μg folded s-RhTx with capsaicin 200 ng; n = 9; words
Source text: as §8, §9, §10, §11, §12, §13, §14, §15

T2 sequence (Q704Y3 whole entry): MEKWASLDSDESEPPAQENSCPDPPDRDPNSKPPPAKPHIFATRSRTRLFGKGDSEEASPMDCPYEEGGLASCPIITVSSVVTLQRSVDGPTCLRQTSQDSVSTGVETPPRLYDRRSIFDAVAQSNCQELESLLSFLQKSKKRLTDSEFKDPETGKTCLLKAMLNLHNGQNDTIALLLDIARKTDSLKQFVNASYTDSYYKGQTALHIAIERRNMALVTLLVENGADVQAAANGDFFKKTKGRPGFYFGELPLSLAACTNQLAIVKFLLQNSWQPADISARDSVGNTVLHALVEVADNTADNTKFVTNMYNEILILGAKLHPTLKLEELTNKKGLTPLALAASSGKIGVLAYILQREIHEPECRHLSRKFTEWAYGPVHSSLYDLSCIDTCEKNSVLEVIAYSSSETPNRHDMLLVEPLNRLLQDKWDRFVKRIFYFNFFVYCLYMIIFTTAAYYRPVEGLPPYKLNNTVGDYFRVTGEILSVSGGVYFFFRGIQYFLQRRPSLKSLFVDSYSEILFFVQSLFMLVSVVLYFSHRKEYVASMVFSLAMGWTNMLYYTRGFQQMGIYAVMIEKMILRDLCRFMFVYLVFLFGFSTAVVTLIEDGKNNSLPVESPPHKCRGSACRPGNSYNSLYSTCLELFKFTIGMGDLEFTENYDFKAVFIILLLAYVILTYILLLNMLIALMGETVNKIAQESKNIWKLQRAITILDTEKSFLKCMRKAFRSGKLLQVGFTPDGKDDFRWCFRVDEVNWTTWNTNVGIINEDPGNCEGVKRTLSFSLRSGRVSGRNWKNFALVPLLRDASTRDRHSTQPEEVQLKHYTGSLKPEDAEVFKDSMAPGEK
T1 sequence (Q704Y3 whole entry E652D): as the sequence (Q704Y3 whole entry) above, with E652D counted along it

NCCOB(c1ccccc1)c1ccccc1 [2-APB]
normalized TRPV2 current, 2-APB alone (TRPV2): 7.06 ± 2.25% | normalized TRPV3 current, 2-APB alone (TRPV3): 7.08 ± 3.57%

C=CCN=C=S [AITC]
normalized TRPA1 current, AITC alone (TRPA1): 41.06 ± 12.85%

CCOC(=O)C1=C(c2ccccc2)NC(C)=C(C(=O)SCCOC)C1CC (centres unmarked) [MRS1477]
duration of analgesic effects [1]: about two weeks | TRPV1 activation by capsaicin (TRPV1 [2]): enhances TRPV1 activation by capsaicin

C=C(C)[C@]12C[C@@H](C)[C@@]34O[C@](Cc5ccccc5)(O[C@@H]1[C@@H]3C=C(COC(=O)Cc1ccc(O)c(OC)c1)C[C@]1(O)C(=O)C(C)=C[C@@H]41)O2 [resiniferatoxin]
cell death in TRPV1-expressing neurons [1]: induces cells death in TRPV1-expressing neurons

CC[C@H](C)[C@H](NC(=O)[C@@H]1CSSC[C@@H]2NC(=O)[C@H]([C@@H](C)O)NC(=O)[C@H](C(C)C)NC(=O)CNC(=O)[C@H](CC(N)=O)NC(=O)[C@@H](NC(=O)[C@@H]3CCCN3)CSSC[C@H](NC(=O)[C@H](CCCNC(=N)N)NC(=O)[C@H](Cc3ccc(O)cc3)NC(=O)CNC(=O)[C@H](CO)NC(=O)[C@@H]3CCCN3C2=O)C(=O)N[C@@H](CO)C(=O)N[C@@H]([C@@H](C)CC)C(=O)N[C@@H](C(C)C)C(=O)N[C@@H](CC(=O)O)C(=O)N[C@@H](CCCCN)C(=O)N[C@@H](CCC(N)=O)C(=O)N1)C(=O)N[C@@H](CCCCN)C(=O)N[C@@H](CCCCN)C(=O)N[C@@H](CCC(=O)O)C(=O)O [s-RhTx] (H-PCNGVTCPSGYRCSIVDKQCIKKE-OH; disulfide 2-13, 7-20)
increase of intracellular calcium fluorescence, E652D (TRPV1 E652D [3]): 47.5 ± 0.05% | IENF degeneration, peptide alone [4]: did not induce | EC50 (TRPV1 [5]): 0.89 ± 0.45 µM | EC50 (TRPV1 [6]): 1.58 ± 0.5 µM | EC50 (TRPV1 E652D [7]): 7.16 ± 1.42 µM | enhancement of intracellular calcium, WT TRPV1 (TRPV1 [8]): 56.09 ± 8.62% | body temperature change [9]: did not cause any changes in the body temperature | Trpv1+ neuron proportion and total neuron density in DRGs ([10]; co-injection with capsaicin, 1 and 4 weeks, words, listed as folded s-RhTx): did not change at 1 week; also recorded: not significantly changed | Trpv1+ neurons (% of all neurons) ([10]; 1 week, Mouse # 1): 33.4% | Trpv1+ neurons (% of all neurons) ([10]; 1 week, Mouse # 2): 33.4% | Trpv1+ neurons (% of all neurons) ([10]; 1 week, Mouse # 3): 35.2% | Trpv1+ neurons (% of all neurons) ([10]; 4 weeks, Mouse # 1): 37.1% | Trpv1+ neurons (% of all neurons) ([10]; 4 weeks, Mouse # 2): 32.1% | Trpv1+ neurons (% of all neurons) ([10]; 4 weeks, Mouse # 3): 33.0% | recruitment of immune cells (mouse hind paw skin): did not induce the recruitment | body temperature change, systemic [11]: didn’t change body temperature | local inflammation of hind paw (mouse hind paw): no obvious local
